From ChEMBL document CHEMBL5365439, “Development of a Selective Peptide κ-Opioid Receptor Antagonist by Late-Stage Functionalization with Cysteine Staples” (J Med Chem, 2023)
The source made the active and inactive calls. No cut-off for these calls is given here. Numbered stars: 1 amine (or outer) side, 2 acyl side, 3 side chain; on linkers, the order of the positions; unused ones are H or OH. Bridge positions count the residues as written; N and C are the ends. Square brackets hold non-standard residues; d marks the D form. Peptide text beside a SMILES is read from it. CH2COCH2 = O=C(C[*:1])C[*:2]; CH2 = C([*:1])[*:2]; Mpa = O=C(O)CCS

What was measured:
[1] = biological target: Delta-type opioid receptor (Mus musculus) (UniProt P32300); assay: Displacement of [3H]diprenorphine from mouse DOR expressed in HEK293 cell membrane at 10 uM incubated for 1 hr by radioligand displacement assay; format: cell membranes
[2] = biological target: Mu-type opioid receptor (Mus musculus) (UniProt P42866); assay: Displacement of [3H]diprenorphine from mouse MOR expressed in HEK293 cell membrane at 10 uM incubated for 1 hr by radioligand displacement assay; format: cell membranes
[3] = biological target: Kappa-type opioid receptor (Mus musculus) (UniProt P33534); assay: (§1) Antagonist activity at mouse KOR expressed in HEK293 cells coexpressing EGFP/beta-arrestin2 fused NanoLuc assessed as reduction in beta-arrestin2 recruitment at 10 uM preincubated with furimazine for 5 mins followed by peptide addition and measured for 30 mins by BRET assay; format: functional, cell-based
[4] = Stability in human serum assessed as degradation at 3 mg/ml measured after 15 mins by RP-HPLC analysis; format: ADME, cell-free
[5] = biological target: T1, Kappa-type opioid receptor (Mus musculus, UniProt P33534); assay: Displacement of [3H]diprenorphine from mouse KOR expressed in HEK293 cell membrane assessed as inhibition constant incubated for 1 hr by radioligand displacement assay; format: cell membranes
[6] = biological target: T1, Kappa-type opioid receptor; assay: Partial agonist activity at mouse KOR expressed in HEK293 cells assessed as inhibition of forskolin-induced adenylyl cyclase-dependent cAMP formation incubated for 30 mins by HTRF analysis; format: functional, cell-based
[7] = biological target: Kappa-type opioid receptor (Mus musculus) (UniProt P33534); assay: Antagonist activity at mouse KOR expressed in HEK293 cells assessed as forskolin-induced adenylyl cyclase-dependent cAMP formation at 10 uM incubated for 30 mins by HTRF analysis; format: functional, cell-based; settings: filed as antagonist
[8] = biological target: T1, Kappa-type opioid receptor; assay: Competitive antagonist activity at mouse KOR expressed in HEK293 cells at 0.3 to 10 uM preincubated for 30 mins followed by U50,488 addition and measured after 30 mins by fluorescence based schild regression analysis; format: functional, cell-based; settings: read-out: pA2 (converted)
[9] = biological target: Kappa-type opioid receptor (Mus musculus) (UniProt P33534); assay: Antagonist activity at KOR in C57BL/6 mouse DRG neurons assessed as inhibition of U50,488 induced calcium mobilization at 1 to 10 uM preincubated with compound followed by U50,488 addition and measured for 12 mins by single cell calcium microfluorimetry analysis; format: functional, cell-based; settings: DRG neuron, filed as antagonist, dose 1-10 µM
Mus musculus [10] = assay: In vivo antagonist activity at KOR in CD-1 mouse model of U50,488 induced acute thermal nociception at 20 mg/kg, sc pretreated for 15 mins followed by U50,488 stimulation and measured after 30 to 60 mins by radiant heat tail flick assay; format: functional, organism-based; settings: time 45-75 min
Mus musculus [11] = assay: In vivo antagonist activity at KOR in CD-1 mouse model assessed as reversal of U50,488 induced motor impairment by measuring increase in latency to fall at 20 mg/kg, sc pretreated for 15 mins followed by U50,488 stimulation and measured at 30 mins by rotarod assay; format: functional, organism-based; settings: time 45.0 min
[12] = biological target: Kappa-type opioid receptor (Mus musculus) (UniProt P33534); assay: as §1, with “recruitment by measuring residual BRET signal” for “recruitment”, “assay relative to control” for “assay”; format: functional, cell-based; settings: filed as antagonist
[13] = biological target: T1, Kappa-type opioid receptor; assay: Modulation of mouse KOR expressed in HEK293 cells assessed as inhibition of forskolin-induced adenylyl cyclase-dependent cAMP formation incubated for 30 mins by HTRF analysis; format: functional, cell-based
Mus musculus [14] = assay: In vivo antagonist activity at KOR in CD-1 mouse model of U50,488 induced acute thermal nociception at 10 mg/kg, sc pretreated for 24 hrs followed by U50,488 stimulation and measured after 30 to 60 mins by radiant heat tail flick assay; format: functional, organism-based; settings: time lower 24.5 hrs, time upper […]

SMILES	Activity [1]	Activity [2]	Activity [3]	Stability [4]	Ki [5] [nM]	Activity ([3]; filed as antagonist)	Activity [7]	also measured
CC[C@H](C)[C@@H]1NC(=O)[C@H](CCCNC(=N)N)NC(=O)[C@H](CCCNC(=N)N)NC(=O)[C@H](CC(C)C)NC(=O)[C@H](Cc2ccccc2)NC(=O)CNC(=O)CNC(=O)[C@H](Cc2ccc(O)cc2)NC(=O)CCSCSC[C@@H](C(=O)N[C@@H](CCCCN)C(=O)N[C@@H](CC(C)C)C(=O)N[C@@H](CCCCN)C(N)=O)NC(=O)[C@H](CCCNC(=N)N)NC1=O ([Mpa]YGGFLRRIRCKLK-NH2; linker 1-11 via CH2)	inactive	inactive	–	–	–	–	–	–
CC(C)C[C@H](NC(=O)[C@H](CCCCN)NC(=O)[C@@H]1CCCN1C(=O)[C@H](CCCNC(=N)N)NC(=O)[C@@H]1CSSCCC(=O)N[C@@H](Cc2ccc(O)cc2)C(=O)NCC(=O)NCC(=O)N[C@@H](Cc2ccccc2)C(=O)N[C@@H](CC(C)C)C(=O)N[C@@H](CCCNC(=N)N)C(=O)N[C@@H](CCCNC(=N)N)C(=O)N1)C(=O)N[C@@H](CCCCN)C(=O)O ([Mpa]YGGFLRRCRPKLK-OH; disulfide 1-9)	–	–	inactive	–	–	–	–	–
CC[C@H](C)[C@H](NC(=O)[C@H](CCCN=C(N)N)NC(=O)[C@H](CCCN=C(N)N)NC(=O)[C@H](CC(C)C)NC(=O)[C@H](Cc1ccccc1)NC(=O)CNC(=O)CNC(=O)[C@@H](N)Cc1ccc(O)cc1)C(=O)N[C@@H](CCCN=C(N)N)C(=O)N1CCC[C@H]1C(=O)N[C@@H](CCCCN)C(=O)N[C@@H](CC(C)C)C(=O)N[C@@H](CCCCN)C(N)=O	–	–	inactive	Unstable	–	–	–	–
CC[C@H](C)[C@@H]1NC(=O)[C@H](CCCNC(=N)N)NC(=O)[C@H](CCCNC(=N)N)NC(=O)[C@H](CC(C)C)NC(=O)[C@H](Cc2ccccc2)NC(=O)CNC(=O)CNC(=O)[C@H](Cc2ccc(O)cc2)NC(=O)CCSCC(=O)CSC[C@@H](C(=O)N[C@@H](CCCCN)C(=O)N[C@@H](CC(C)C)C(=O)N[C@@H](CCCCN)C(=O)O)NC(=O)[C@H](CCCNC(=N)N)NC1=O ([Mpa]YGGFLRRIRCKLK-OH; linker 1-11 via CH2COCH2)	–	–	inactive	–	–	–	–	–
CC(C)C[C@H](NC(=O)[C@H](CCCCN)NC(=O)[C@@H]1CCCN1C(=O)[C@H](CCCNC(=N)N)NC(=O)[C@@H]1CSCC(=O)CSCCC(=O)N[C@@H](Cc2ccc(O)cc2)C(=O)NCC(=O)NCC(=O)N[C@@H](Cc2ccccc2)C(=O)N[C@@H](CC(C)C)C(=O)N[C@@H](CCCNC(=N)N)C(=O)N[C@@H](CCCNC(=N)N)C(=O)N1)C(=O)N[C@@H](CCCCN)C(=O)O ([Mpa]YGGFLRRCRPKLK-OH; linker 1-9 via CH2COCH2)	inactive	inactive	–	Unstable	91	Active	–	EC50 [6]: 270 nM
CC[C@H](C)[C@@H]1NC(=O)[C@H](CCCNC(=N)N)NC(=O)[C@H](CCCNC(=N)N)NC(=O)[C@H](CC(C)C)NC(=O)[C@H](Cc2ccccc2)NC(=O)CNC(=O)CNC(=O)[C@H](Cc2ccc(O)cc2)NC(=O)CCSCSC[C@@H](C(=O)N[C@@H](CCCCN)C(=O)N[C@@H](CC(C)C)C(=O)N[C@@H](CCCCN)C(=O)O)NC(=O)[C@H](CCCNC(=N)N)NC1=O ([Mpa]YGGFLRRIRCKLK-OH; linker 1-11 via CH2)	inactive	inactive	–	Unstable	–	Active	Active	–
CC(C)C[C@H](NC(=O)[C@H](CCCCN)NC(=O)[C@@H]1CCCN1C(=O)[C@H](CCCNC(=N)N)NC(=O)[C@@H]1CSCSCCC(=O)N[C@@H](Cc2ccc(O)cc2)C(=O)NCC(=O)NCC(=O)N[C@@H](Cc2ccccc2)C(=O)N[C@@H](CC(C)C)C(=O)N[C@@H](CCCNC(=N)N)C(=O)N[C@@H](CCCNC(=N)N)C(=O)N1)C(=O)N[C@@H](CCCCN)C(N)=O ([Mpa]YGGFLRRCRPKLK-NH2; linker 1-9 via CH2)	inactive	inactive	–	–	6.8	–	Active	Kb [8]: 31.6 nM; Activity [9]: Active; Activity (Mus musculus [10]): Active; Activity (Mus musculus [11]): Active; Activity [12]: 5%
CC(C)C[C@H](NC(=O)[C@H](CCCCN)NC(=O)[C@@H]1CCCN1C(=O)[C@H](CCCNC(=N)N)NC(=O)[C@@H]1CSCSCCC(=O)N[C@@H](Cc2ccc(O)cc2)C(=O)NCC(=O)NCC(=O)N[C@@H](Cc2ccccc2)C(=O)N[C@@H](CC(C)C)C(=O)N[C@@H](CCCNC(=N)N)C(=O)N[C@@H](CCCNC(=N)N)C(=O)N1)C(=O)N[C@@H](CCCCN)C(=O)O ([Mpa]YGGFLRRCRPKLK-OH; linker 1-9 via CH2)	inactive	inactive	–	Unstable	77	Active	Active	–
CC(C)C[C@H](NC(=O)[C@H](CCCCN)NC(=O)[C@@H]1CCCN1C(=O)[C@H](CCCNC(=N)N)NC(=O)[C@@H]1CSCC(=O)CSCCC(=O)N[C@@H](Cc2ccc(O)cc2)C(=O)NCC(=O)NCC(=O)N[C@@H](Cc2ccccc2)C(=O)N[C@@H](CC(C)C)C(=O)N[C@@H](CCCNC(=N)N)C(=O)N[C@@H](CCCNC(=N)N)C(=O)N1)C(=O)N[C@@H](CCCCN)C(N)=O ([Mpa]YGGFLRRCRPKLK-NH2; linker 1-9 via CH2COCH2)	inactive	inactive	–	–	32	–	–	EC50 [13]: 740 nM; Activity [12]: 25%
Oc1ccc2c3c1O[C@H]1c4[nH]c5c(c4C[C@@]4(O)[C@@H](C2)N(CC2CC2)CC[C@]314)C[C@@]1(O)[C@H]2Cc3ccc(O)c4c3[C@@]1(CCN2CC1CC1)[C@H]5O4	–	–	–	–	–	–	–	Activity (Mus musculus [14]): Active
